Results from patent publication US10048243B2, “Automatic water quality surveillance apparatus” (priority 2016, dated 2018).

Tests used:
cyprinodonts = system: cyprinodonts; parameters: species or system Oryzias latipes; conditions: in vivo
Excerpt: Referring to FIG. 10, it is clear that the cyprinodonts 4e take unique action based on the kind of toxic substances.
In order to solve the problems, the present inventor has further devised a method including: putting a plurality (for example, 20) of cyprinodonts 4e into the water tank for fish 4d; photographing the cyprinodonts 4e by means of the CCD video camera 1 in a direction of bird's-eye to output data; and analyzing the data with the image processing device 1b.
In order to solve the problem of photographing one cyprinodont from the side wall, the inventor has performed: changing the side photographing system shown in FIG. 10 to the bird's-eye photographing system shown in FIG. 11; using the more (about 20) cyprinodonts; and developing new algorithm. In this way, the present inventor has solved the problem in recent years.
Furthermore, the present inventor has developed algorithm of issuing an alarm in this state.
When about 2 [ppm] concentration of potassium cyanide is contained in the raw water, the cyprinodonts 4e swim weakly toward a water flow to be carried away, thereby being latched by the capture net 4f.

[1] = system: fish reared within the water tank for fish; type: in vivo; conditions: for effect on the fish: in vivo; for damage or injury of the fish caused by the pollution: small amount
Excerpt: This is because the oil keeps floating on a water surface thereof.
In this context, the present inventor has confirmed according to tests that the conventional automatic water quality surveillance apparatus with fish cannot sense the oil and/or the mold odor substances based on abnormal behavior of the fish.

Row | SMILES | organ system of cyprinodonts damaged (cyprinodonts) | unique action taken by cyprinodonts (cyprinodonts) | effect on the fish [1] | damage or injury of the fish caused by the pollution [1]
1 | COP(=S)(OC)Oc1ccc([N+](=O)[O-])c(C)c1 [Fenitrothion] | damages nervous systems | madly-rushing action |  | 
2 | CC1CCCC2(C)CCCCC12O (stereo not drawn) [geosmin] |  |  | hardly affect the fish | neither to be damaged nor to be injured
3 | CC1(C)[C@@H]2CC[C@@]1(C)[C@](C)(O)C2 [2-MIB, 2-methylisoborneol] |  |  | hardly affect the fish | neither to be damaged nor to be injured
